The text below walks through data of patent US8722714B2, “Oxazolidine derivatives as NMDA antagonists” (The Honk Kong University of Science and Technology, priority 2008, dated 2014).

Data set [1] has as its system rat primary cortical neurons. Briefly: Neuron survival assay against NMDA insult (LDH release). As to conditions: NMDA 20 μM; for protection of rat primary cortical neurons from NMDA insults (LDH release, fold change vs DMSO): compounds 10-30 μg/ml, 11 DIV; for cell death (LDH release, cell cytotoxicity vs DMSO): compound 10 μg/mL, DIV 11. It is filed as cell-based. The procedure:
Primary cortical and hippocampal neurons were prepared from embryonic day 18 (E18) Sprague-Dawley rats. Neurons were plated on 24-well plate (TPP, Corning) at a density of 2×10^5 cells per well using Neurobasal medium (Invitrogen) supplemented with 2% B27 (Invitrogen). Neurons at 11-12 days in vitro (12 DIV) were subjected to drug treatment. Neurons were pretreated with the test compound for 2 hours prior to NMDA treatment. 0.1 μM (+)-MK-801 Hydrogen Maleate (Sigma) was added as a positive control. Briefly, the neurons were rinsed with Locke's solution (5 mM potassium chloride, 128 mM sodium chloride, 2.7 mM calcium chloride, 1 mM di-sodium hydrogen orthophosphate, 5 mM HEPES and 10 mM glucose in Milli-Q water) without Mg^2+, and incubated with addition of glycine (10 μM) for 15 minutes. After the incubation, the neurons were co-treated with the test compound (dissolved in Locke's plus glycine solution) and NMDA (20 μM; Sigma) for 20 minutes. Neurons were rinsed with Locke's plus Mg^2+ and replaced with fresh growth medium. The cell death was assayed and quantified using the lactate dehydrogenase release assay (Roche) after 24 hours.
Embryonic rat cortical neurons (11 DIV) were treated with NMDA (20 μM) in the absence or presence of the LC series of compounds (10-30 μg/ml). […] LDH release in the medium after overnight incubation was measured and fold change was calculated when compared to the solvent control, DMSO.
Embryonic rat cortical neurons (DIV 11) were treated with NMDA (20 μM) in the absence or presence of LC-01 or LC-02 (μg/mL). LDH release in the medium after overnight incubation was measured and cell cytotoxicity was calculated in percentage when compared to the solvent control, DMSO.
Embryonic rat cortical neurons (DIV 11) were treated with NMDA (20 μM) in the absence or presence of LC-06 (μg/mL). LDH release in the medium after overnight incubation was measured and cell cytotoxicity was calculated in percentage when compared to the solvent control, DMSO.
Embryonic rat cortical neurons (11 DIV) were treated with NMDA (20 μM) in the absence or presence of LC-24 or LC-25 (μg/mL). LDH release in the medium after overnight incubation was measured and cell cytotoxicity was calculated in percentage when compared to solvent control (DMSO).
For orientation: Release of lactate dehydrogenase indicates damage to the cell membrane.

The next data set relates to MCAO rats. The experiment in a line: Middle cerebral artery occlusion (MCAO) model: mNSS, infarct volume, edema volume. It is filed as in vivo, rat. Conditions: for edema volume (% of the ipsilateral hemisphere) / infarct volume: 2 h MCAO; for infarct volume: mean±S.E.M. Here is the method:
Before surgery, male rats were 259-354 g fasted overnight with free access to water. Briefly, rats were anesthetized with chloral hydrate (400 mg/kg, ip). Through a midline neck incision, the right common and external carotid artery were isolated from muscles and coagulated. A suture with a blunted tip was inserted into the internal carotid through the external carotid artery stump and advanced up to 21 mm or till resistance was […]. A thermostatically regulated heating pad was used to maintain temperature at 37° C. After 2 h of MCAO, the suture was removed to restore blood flow. In sham group, the same surgical procedure was performed except that the suture was introduced into the external carotid artery but not advanced. After surgery, the incision was sutured and the rats were returned to their cage with free access to water and food.
Neurological function of ischemic rats was graded on modified Neurological Severity Score (mNSS) system in a range of 0 to 18 (normal score, 0; maximal deficit score, 18). The mNSS system is a composite evaluation of motor and sensory function, balance impairment and reflex abnormality of ischemic animals (Chen et al., 2001 Intravenous administration of human umbilical cord blood reduces behavioral deficits after stroke in rats. Stroke 32:2682-8.). In the severity scores of injury, 1 score point is awarded for the inability to perform the test or for the lack of a tested reflex; thus, the higher the score, the more severe is the injury.
At 3 days after ischemia, whole brains were rapidly removed. The brain were sliced into 2-mm-thick coronal sections and stained with 1% 2,3,5-triphenyltetrazoliumchloride (TTC, Sigma) at 37° C. for 30 minutes in the dark, followed by fixation with 4% paraformaldehyde (PFA) at 4° C. overnight. The sections were scanned with scanner connected to a computer. The unstained areas, defined as infarct tissue, were calculated by using an image analysis program. The infarct volume was calculated by measuring the unstained area in each slice. The infarct area in each slice was calculated by subtracting the normal ipsilateral (ischemic) area from that of the contralateral (non-ischemic) hemisphere to reduce errors due to cerebral edema and was presented as a percentage relative to the area of the contralateral hemisphere.
The contralateral hemispheric volume was used as a control for calculation of ischemia-induced brain edema in the ipsilateral hemisphere. A net difference in hemispheric volumes was gained by subtracting the volume of the […] from that of the infracted hemisphere. Brain swelling was expressed as a percentage of the net difference in ischemic hemispheric volume over the contralateral hemispheric volume.
Rats were subjected to middle cerebral artery occlusion (MCAO) to induce focal cerebral ischemia. Neurological functions of these ischemic rats were then graded on a modified Neurological Severity Score (mNSS) system from a range of 0 to 18 (normal score, 0; maximal deficit score, 18). The mNSS system is a composite evaluation of motor and sensory function, balance impairment and reflex abnormality of ischemic animals. […]
3 days after ischemia, whole brains were rapidly removed, sliced into 2-mm-thick coronal sections, stained with 1% 2,3,5-triphenyltetrazoliumchloride (TTC) and fixed (FIG. 6a). […] Infarct volume was measured in the coronal brain sections.
Infarct volume and edema volume were also measured. […]

A further data set has as its system mice. The experiment in a line: Open Field Test (OFT). It is filed as in vivo. Conditions: 100 mg/kg p.o., 7 times, vs control group.

With `CC[C@H]1N[C@@H](CC(C)C)C(CC)(CC)O1` [LC-02], in data set [1], the “protection of rat primary cortical neurons from NMDA insults (LDH release, fold change vs DMSO)” value (from here on “protection … (LDH release, fold change vs DMSO)”) is listed as “significantly protected” and the “cell death (LDH release, cell cytotoxicity vs DMSO)” value was “cell death was markedly reduced”. In the data set on MCAO rats (35 mg/kg), the “edema volume (% of the ipsilateral hemisphere)” value was determined as 2.44±0.43% and the infarct volume is 34.45%±3.38%. Further, the “functional recovery, modified Neurological Severity Score (mNSS)” value in the data set with MCAO rats (70 mg/kg oral, 24, 48 and 72 hours after MCAO, vs vehicle) is on record as “significantly improved functional recovery”. In addition, the “edema volume (% of the ipsilateral hemisphere)” value in the data set with MCAO rats (70 mg/kg) came out at 2.85±0.80%. For the same compound, the infarct volume in the data set on MCAO rats (70 mg/kg, P<0.01) is listed as 18.49%±2.34%. For the same compound, the “total distance travelled in the open field” value with mice is listed as “did not significantly differ”.

Regarding `CCCC1(CCC)O[C@@H](CC)N[C@H]1CC(C)C` [LC-06], in data set [1], the “protection … (LDH release, fold change vs DMSO)” value is “significantly protected” and the “cell death (LDH release, cell cytotoxicity vs DMSO)” value is reported as “cell death was markedly reduced”.

`CC[C@H]1N[C@@H](Cc2ccccc2)C(CC)(CC)O1` [LC-24]: in data set [1], the “protection … (LDH release, fold change vs DMSO)” value is “significantly protected” and the “cell death (LDH release, cell cytotoxicity vs DMSO)” value is “cell death was markedly reduced”.
